Data on 19 compounds can be found in PMC8286840, “Identifying SARS-CoV-2 antiviral compounds by screening for small molecule inhibitors of Nsp3 papain-like protease” (Biochemical Journal, 2021).

SMILES strings stand for the structures. Counter-ions that a name gives are not always drawn. Like-named read-outs stand apart in the source and are kept apart here.

Test [1] concerns the target T1, SARS-CoV-2 PLpro (nsp3 1564–1878) (Severe acute respiratory syndrome coronavirus 2, UniProt P0DTD1). Kind of test: biochemical. On the set-up: FRET-quenched peptide (Pro3) cleavage by PLpro, 10 min pre-incubation, slope over 20 min, normalised to no-compound control. As to conditions: low concentration screen, read-out: % of control remaining.
Test [2] addresses T1, SARS-CoV-2 PLpro (nsp3 1564–1878). Kind of test: biochemical. On the set-up: FRET-quenched peptide (Pro3) cleavage by PLpro, 10 min pre-incubation, slope over 20 min, normalised to no-compound control. As to conditions: high concentration screen, read-out: % of control remaining.

Regarding `NS(=O)(=O)c1ccc(NC2=CC(=O)c3ccccc3C2=O)cc1` [ML329], the remaining activity at 1.25 µM in test [1] (Well no.=8264) came to 91.6%. The remaining activity at 3.75 µM in test [2] (Well no.=8264) was found to be 90.3%.

For `O=C1c2c(O)ccc(O)c2C(=O)c2c(NCCNCCO)ccc(NCCNCCO)c21` [Mitoxantrone], the remaining activity at 1.25 µM in test [1] (Well no.=1028) is 100%; in test [1] (Well no.=1997), 104%. The remaining activity at 3.75 µM in test [2] (Well no.=1028) turned out to be 101%; in test [2] (Well no.=1997) it was 103%.

In the case of `CC(C)OC(=O)C(C)(C)Oc1ccc(C(=O)c2ccc(Cl)cc2)cc1` [Fenofibrate], the remaining activity at 1.25 µM in test [1] (Well no.=421) came out at 97.6%; in test [1] (Well no.=2084), 99.9%. Further, the remaining activity at 3.75 µM in test [2] (Well no.=421) is 101%; in test [2] (Well no.=2084) it was 102%.

As to `N[C@@H](Cc1cc(I)c(Oc2cc(I)c(O)c(I)c2)c(I)c1)C(=O)O` [L-thyroxine], the figures for the remaining activity at 1.25 µM in test [1] (Well no.=2298) and in test [1] (Well no.=7299) were 86.3% and 102%, respectively. The values for the remaining activity at 3.75 µM in test [2] (Well no.=2298) and in test [2] (Well no.=7299) were 88.2% and 105%, respectively.

Regarding `COC(=O)Nc1nc2cc(Sc3ccccc3)ccc2[nH]1` [Fenbendazole], in test [1] (Well no.=2076), the remaining activity at 1.25 µM was determined as 105%. Besides, in test [2] (Well no.=2076), the remaining activity at 3.75 µM came to 102%.

Consider `Nc1ncnc2c1c(-c1cnc3[nH]ccc3c1)nn2C1CCCC1` [PP-121], for which the remaining activity at 1.25 µM in test [1] (Well no.=4958) came to 91%. Besides, the remaining activity at 3.75 µM in test [2] (Well no.=4958) turned out to be 92.2%.

For the compound `CO/N=C(\C(=O)N[C@@H]1C(=O)N2C(C(=O)O)=C(COC(C)=O)CS[C@H]12)c1csc(N)n1` [Cefotaxime sodium], the remaining activity at 1.25 µM in test [1] (Well no.=186) was 93.2%. In addition, the remaining activity at 3.75 µM in test [2] (Well no.=186) stood at 94.1%.

In the case of `CCOC(=O)c1ccc(OC(=O)CCCCCNC(=N)N)cc1` [Gabexate mesylate], the remaining activity at 1.25 µM in test [1] (Well no.=5092) amounted to 97.5%. For the same compound, the remaining activity at 3.75 µM in test [2] (Well no.=5092) was 102%.

Regarding `CC(C)[N+](C)(CCOC(=O)C1c2ccccc2Oc2ccccc21)C(C)C` [Propantheline bromide], the remaining activity at 1.25 µM in test [1] (Well no.=1401) came to 102%. In test [2] (Well no.=1401), the remaining activity at 3.75 µM came out at 102%.

`Cc1cc(COc2nc(N)nc3ccn(Cc4ccccn4)c23)no1` [TLR7 agonist 2]: the remaining activity at 1.25 µM in test [1] (Well no.=8227) was 106%. Further, in test [2] (Well no.=8227), the remaining activity at 3.75 µM was found to be 103%.

For `CCCc1nc(C)c2c(O)nc(-c3cc(S(=O)(=O)N4CCN(CC)CC4)ccc3OCC)nn12` [Vardenafil HCl Trihydrate], the remaining activity at 1.25 µM in test [1] (Well no.=8292) stood at 101%. Also, in test [2] (Well no.=8292), the remaining activity at 3.75 µM stood at 94.4%.

As to `CCCCCCCC/C=C/CCCCCCCCCCCCC(=O)O` [14(E)-Tricosenoic acid], the remaining activity at 1.25 µM in test [1] (Well no.=4500) was 95.4%. Besides, in test [2] (Well no.=4500), the remaining activity at 3.75 µM was 94.8%.

For the compound `Cc1ccnc(NS(=O)(=O)c2ccc(N)cc2)n1` [Sulfamerazine], the remaining activity at 1.25 µM is 92.6% in test [1] (Well no.=4941) and 94.8% in test [1] (Well no.=8644). Besides, the remaining activity at 3.75 µM in test [2] (Well no.=4941) came to 83.3%; in test [2] (Well no.=8644), 92.4%.

On to `CC[C@]12CCCN3CCc4c(n(c5ccccc45)[C@@](O)(C(=O)OC)C1)[C@@H]32` [Vincamine], for which, in test [1] (Well no.=3475), the remaining activity at 1.25 µM is 106%. Also, the remaining activity at 3.75 µM in test [2] (Well no.=3475) is 102%.

Take `CCC(C)N(C)C(=O)c1cc2ccccc2c(-c2ccccc2Cl)n1` (stereo not shown) [PK 11195]: the remaining activity at 1.25 µM in test [1] (Well no.=185) is 99.9%. Moreover, the remaining activity at 3.75 µM in test [2] (Well no.=185) was found to be 98.2%.

As to `CC(=O)c1ccc(N2CCOCC2)cc1O` [DNA-PK Inhibitor III], the remaining activity at 1.25 µM in test [1] (Well no.=2365) is 104%. Besides, the remaining activity at 3.75 µM in test [2] (Well no.=2365) is 105%.

`O=C(O)CCC/C=C\C/C=C\C=C\[C@@H](O)C/C=C\CCCCCO` [12(S),20-DIHETE]: the remaining activity at 1.25 µM in test [1] (Well no.=4565) was found to be 99.6%. Further, the remaining activity at 3.75 µM in test [2] (Well no.=4565) was found to be 101%.

As for `CC(COc1ccccc1)N(CCCl)Cc1ccccc1` (stereo not shown) [Phenoxybenzamine hydrochloride], the remaining activity at 1.25 µM in test [1] (Well no.=371) turned out to be 95.1%. Further, the remaining activity at 3.75 µM in test [2] (Well no.=371) is 91.2%.

As for `CN(C)CCN(Cc1ccccc1)c1ccccn1` [Tripelennamine (hydrochloride)], the remaining activity at 1.25 µM in test [1] (Well no.=7663) is 99.1%. In addition, the remaining activity at 3.75 µM in test [2] (Well no.=7663) is 98.8%.
